Data reported in PMC10516900 (Communications Biology, 2023).
Where “and” joins values, the source holds several entries; their conditions need not be identical. Equal values may be shown once.

How the values were obtained:
Assay type in all cases: cell-based, human
HCT116 (p53+/+) cells [1] = experiment: Cell proliferation assay (WST-1), HCT116 (p53+/+); settings: absorbance at 450 nm
Method: (§1) After transfection, a cell proliferation assay was conducted each day using EZ-Cytox (Daeilbio, WST-1; #EZ-1000), using the manufacturer’s instructions. For P50429, the cells were seeded at 3000 or 6000 cells per well with an inhibitor concentration of 25 μM and 12.5 to 100 μM, respectively. EZ-Cytox (DoGEN, EZ-3000) was diluted using media and incubated for 30 min. The absorbance was measured at a wavelength of 450 nm using a microplate absorbance reader (Bio-Rad).

HCT116 (p53-/-) cells [2] = experiment: Cell proliferation assay (WST-1), HCT116 (p53-/-); settings: for Cell viability (WST-1 absorbance): P53-/-, absorbance at 450 nm
Method: as §1

HCT116 (p53+/+) cells [3] = experiment: Colony formation assay, HCT116 (p53+/+); settings: for Colony formation, colony number: WT (p53+/+), 10 days, three experiments and AVERAGE
Method: (§2) The cells were re-suspended with trypsin-EDTA, and 1000 cells were seeded in 35 mm dishes 48 h after transfection. After 10 days, the cells were washed with PBS and fixed in 4% paraformaldehyde for 10 min before being stained with Crystal violet for 30 min and washed with PBS.

HCT116 (p53-/-) cells [4] = experiment: Colony formation assay, HCT116 (p53-/-); settings: for Colony formation, colony number: KO (p53-/-), 10 days, three experiments and AVERAGE
Method: as §2

HCT116 (p53+/+) cells [5] = experiment: Q-PCR relative expression levels, HCT116 (p53+/+)
HCT116 (p53-/-) cells [6] = experiment: Q-PCR relative expression levels, HCT116 (p53-/-)
From the text: (d) Western blot analysis was
The data represent the mean ± SD (*;p<0.05,
(1 picture or pasted object on this page, not shown here)

p53 = experiment: Western blot analysis of protein levels, HCT116 (p53+/+)
Method: Stained colonies were counted in three independent experiments. The data represent the mean ± SD (*: p < 0.05, **: p < 0.005, and ***: p < 0.0005).
A total of 10–50 μg protein was extracted from cells and used for Western blot analysis. Briefly, the cells were lysed using protein lysis buffer (50 mM Tris–Cl, 150 mM NaCl, 1% Triton X-100, 1 mM EDTA, 200 mM Na3VO4, 1x proteinase inhibitor, pH 7.4) and the protein concentration was measured using a Micro BCA^TM Protein Assay kit (Thermo Scientific), based on the standard curve of BSA. The antibodies used for immunoblot analysis were purchased and assessed for equal loading as follows: rabbit anti-USP7 (#A300-034, dilution ratio 1:1000) and rabbit anti-USP47 (#A301-048A, 1:1000) from Bethyl Laboratories; mouse anti-Flag (#F1804, 1:1000) from Sigma Aldrich; rabbit anti-ubiquitin (#3933, 1:2000) from Cell Signaling; mouse anti-p53 (#sc-126, 1:1000), and mouse anti-HSP90α/β (#sc-13119, 1:5000) from Santa Cruz Biotechnology; rabbit anti-β-actin (#LF-PA0207, 1:5000) from AbFrontier. Samples were analyzed using SDS-PAGE, and chemiluminescence was measured using the Ez-Capture MG imaging system (ATTO Corporation).

USP47i: siRNA targeting USP47 (5′-TGAAAAGGGATGTGCAAAA-3′) (chemistry not given here)
Cell viability (WST-1 absorbance) (HCT116 (p53+/+) cells [1]; day 1 after transfection): 0.327
Cell viability (WST-1 absorbance) (HCT116 (p53+/+) cells [1]; day 2 after transfection): 0.527
Cell viability (WST-1 absorbance) (HCT116 (p53+/+) cells [1]; day 3 after transfection): 0.7565
Cell viability (WST-1 absorbance) (HCT116 (p53+/+) cells [1]; day 4 after transfection): 0.9428
Cell viability (WST-1 absorbance) (HCT116 (p53-/-) cells [2]; day 1 after transfection): 0.306
Cell viability (WST-1 absorbance) (HCT116 (p53-/-) cells [2]; day 2 after transfection): 0.559
Cell viability (WST-1 absorbance) (HCT116 (p53-/-) cells [2]; day 3 after transfection): 0.8146
Cell viability (WST-1 absorbance) (HCT116 (p53-/-) cells [2]; day 4 after transfection): 1.235
cell viability compared to control cells (HCT116 (p53-/-) cells [2]; p53-deficient HCT116): did not yield any discernible differences
decrease in the number of colonies relative to control cells (HCT116 (p53+/+) cells [3]; HCT116 p53+/+, Fig. 1b): approximately 30%
Colony formation, colony number (HCT116 (p53+/+) cells [3]): 271 and 259 and 252
Colony formation, colony number (HCT116 (p53+/+) cells [3]; mean): 260.667
Colony formation, colony number (HCT116 (p53-/-) cells [4]): 367 and 379 and 377
Colony formation, colony number (HCT116 (p53-/-) cells [4]; mean): 374.333
colony formation compared to control cells (HCT116 (p53-/-) cells [4]; p53-deficient HCT116): did not yield any discernible differences
relative expression level of USP7 (Q-PCR) (HCT116 (p53+/+) cells [5]): 1.017
relative expression level of USP47 (Q-PCR) (HCT116 (p53+/+) cells [5]): 0.5092
relative expression level of USP7 (Q-PCR) (HCT116 (p53-/-) cells [6]): 0.9689
relative expression level of USP47 (Q-PCR) (HCT116 (p53-/-) cells [6]): 0.3387
protein levels of p53 (p53): increased
